pEC50, pIC50: −log10 of the molar value.
Tests used:
STAT6 = target: T1, STAT6 (Homo sapiens, UniProt P42226); test: STAT6 Reporter Luciferase Assay (IL-13 stimulated HaCaT keratinocyte NanoLuc reporter cells); assay type: cell-based; conditions: IL-13 stimulated HaCaT STAT6 NanoLuc reporter cells; read-out: Reporter EC50
T1 construct: stably transfected HaCaT keratinocyte cell line, which expresses NanoLuc luciferase reporter gene under the transcriptional control of the STAT6 responsive promoter; endogenous in cells; host or cells: HaCaT keratinocyte reporter cell line (stably transfected with a NanoLuc reporter)
T1 sequence (P42226 1-847): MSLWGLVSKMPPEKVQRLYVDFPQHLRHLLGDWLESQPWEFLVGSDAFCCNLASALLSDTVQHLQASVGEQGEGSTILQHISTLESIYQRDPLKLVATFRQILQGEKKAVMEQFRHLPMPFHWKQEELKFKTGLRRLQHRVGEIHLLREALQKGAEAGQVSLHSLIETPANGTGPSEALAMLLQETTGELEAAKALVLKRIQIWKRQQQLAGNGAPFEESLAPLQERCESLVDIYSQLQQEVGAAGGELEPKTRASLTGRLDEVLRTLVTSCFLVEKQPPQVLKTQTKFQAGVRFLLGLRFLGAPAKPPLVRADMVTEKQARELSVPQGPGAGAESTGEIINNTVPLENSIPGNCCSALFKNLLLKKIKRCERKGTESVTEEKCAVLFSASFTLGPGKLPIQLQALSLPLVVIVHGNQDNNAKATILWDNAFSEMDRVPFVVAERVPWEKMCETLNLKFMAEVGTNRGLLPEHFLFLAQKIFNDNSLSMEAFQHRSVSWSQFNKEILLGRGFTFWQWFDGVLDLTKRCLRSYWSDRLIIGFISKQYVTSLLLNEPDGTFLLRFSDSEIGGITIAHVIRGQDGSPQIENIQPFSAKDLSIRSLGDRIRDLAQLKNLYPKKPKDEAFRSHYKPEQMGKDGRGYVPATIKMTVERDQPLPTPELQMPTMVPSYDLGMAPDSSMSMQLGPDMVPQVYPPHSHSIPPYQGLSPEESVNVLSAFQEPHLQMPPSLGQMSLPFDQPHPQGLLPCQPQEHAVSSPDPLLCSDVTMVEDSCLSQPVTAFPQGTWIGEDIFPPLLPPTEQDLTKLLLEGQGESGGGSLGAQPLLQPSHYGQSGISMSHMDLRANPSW
Method in brief: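 Stably transfected HaCaT cells carrying NanoLuc under the STAT6-responsive IL-13Ra2 promoter were pre-treated with compound (11-point, 4-fold series, duplicate) for 2 h at 37 °C, then stimulated with 0.12 nM IL-13 for 4 h. Nano-Glo luminescence was read after 15 min.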

[1] = system: CCL17 secretion in peripheral human whole blood; test: Human Whole Blood (HWB) CCL17 TR-FRET Assay (IL-13 stimulated CCL17 secretion); assay type: cell-based; conditions: Homo sapiens, 48 h, human whole blood, 10 ng/mL IL13, 48 hours
Method in brief: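 TR-FRET sandwich immunoassay (665/615 nm ratio) read CCL17 in serum from heparinized whole blood after 16 h RT detection. Blood was exposed to compound for 2 h at 37 °C, then to 10 ng/mL IL-13 (final) for 48 h. IC50 from 11-point, 3-fold titrations in duplicate.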

CC(C)n1nc(C(=O)NCc2ccc(NC(=O)N3CCCC3)cc2)c2c1[C@@H](C)CN(c1ccc(C(=O)N(C)C)cn1)C2 [Example 583, (S)-5-(5-(dimethylcarbamoyl)pyridin-2-yl)-1-isopropyl-7-methyl-N-(4-(pyrrolidine-1-carboxamido)benzyl)-4,5,6,7-tetrahydro-1H-pyrazolo[4,3-c]pyridine-3-carboxamide]
pEC50 (STAT6): 9.00
pIC50 [1]: 7.77

CC(C)n1nc(C(=O)NCc2ccc(NC(=O)N3CC(F)C3)cc2)c2c1[C@@H](C)CN(c1ccc(C(=O)N(C)C)cn1)C2 [Example 584, (S)-5-(5-(dimethylcarbamoyl)pyridin-2-yl)-N-(4-(3-fluoroazetidine-1-carboxamido)benzyl)-1-isopropyl-7-methyl-4,5,6,7-tetrahydro-1H-pyrazolo[4,3-c]pyridine-3-carboxamide]
pEC50 (STAT6): 9.00
pIC50 [1]: 7.92

CC(C)n1nc(C(=O)NCc2ccc(NC(=O)C3CCN(C)CC3)cc2)c2c1[C@@H](C)CN(c1ccc(C(=O)N(C)C)cc1)C2 [Example 585, (S)-5-(4-(dimethylcarbamoyl)phenyl)-1-isopropyl-7-methyl-N-(4-(1-methylpiperidine-4-carboxamido)benzyl)-4,5,6,7-tetrahydro-1H-pyrazolo[4,3-c]pyridine-3-carboxamide]
pEC50 (STAT6): 8.22
pIC50 [1]: 7.43

CC(C)n1nc(C(=O)NCc2ccc(NC(=O)C3(F)CCN(C)CC3)cc2)c2c1[C@@H](C)CN(c1ccc(C(=O)N(C)C)cc1)C2 [Example 586, (S)-5-(4-(dimethylcarbamoyl)phenyl)-N-(4-(4-fluoro-1-methylpiperidine-4-carboxamido)benzyl)-1-isopropyl-7-methyl-4,5,6,7-tetrahydro-1H-pyrazolo[4,3-c]pyridine-3-carboxamide]
pEC50 (STAT6): 8.22
pIC50 [1]: 7.24

CC(C)n1nc(C(=O)NCc2ccc(NC(=O)C3CCN(C)CC3)c(F)c2)c2c1[C@@H](C)CN(c1ccc(C(=O)N(C)C)cn1)C2 [Example 587, (S)-5-(5-(dimethylcarbamoyl)pyridin-2-yl)-N-(3-fluoro-4-(1-methylpiperidine-4-carboxamido)benzyl)-1-isopropyl-7-methyl-4,5,6,7-tetrahydro-1H-pyrazolo[4,3-c]pyridine-3-carboxamide]
pEC50 (STAT6): 7.85
pIC50 [1]: 6.91

COc1cc(NC(=O)N2CCNCC2)c(F)cc1CNC(=O)c1nn(C(C)C)c2c1CN(c1ccc(C(=O)N(C)C)cc1)C[C@@H]2C [Example 588, (S)-5-(4-(dimethylcarbamoyl)phenyl)-N-(5-fluoro-2-methoxy-4-(piperazine-1-carboxamido)benzyl)-1-isopropyl-7-methyl-4,5,6,7-tetrahydro-1H-pyrazolo[4,3-c]pyridine-3-carboxamide]
pEC50 (STAT6): 7.12
pIC50 [1]: 6.06

CC(C)n1nc(C(=O)NCc2ccc(NC(=O)N3CCNCC3)cc2F)c2c1[C@@H](C)CN(c1ccc(C(=O)N(C)C)cc1)C2 [Example 589, (S)-5-(4-(dimethylcarbamoyl)phenyl)-N-(2-fluoro-4-(piperazine-1-carboxamido)benzyl)-1-isopropyl-7-methyl-4,5,6,7-tetrahydro-1H-pyrazolo[4,3-c]pyridine-3-carboxamide]
pEC50 (STAT6): 8.52
pIC50 [1]: 7.72

CC(C)n1nc(C(=O)NCc2ccc(NC(=O)N3CCC(F)(F)C3)cc2)c2c1[C@@H](C)CN(c1ccc(C(=O)N(C)C)cn1)C2 [Example 590, (S)-N-(4-(3,3-difluoropyrrolidine-1-carboxamido)benzyl)-5-(5-(dimethylcarbamoyl)pyridin-2-yl)-1-isopropyl-7-methyl-4,5,6,7-tetrahydro-1H-pyrazolo[4,3-c]pyridine-3-carboxamide]
pEC50 (STAT6): 9.40
pIC50 [1]: 8.00

CC(C)n1nc(C(=O)NCc2ccc(NC(=O)N3CCC3)cc2)c2c1[C@@H](C)CN(c1ccc(C(=O)N(C)C)cn1)C2 [Example 591, (S)-N-(4-(azetidine-1-carboxamido)benzyl)-5-(5-(dimethylcarbamoyl)pyridin-2-yl)-1-isopropyl-7-methyl-4,5,6,7-tetrahydro-1H-pyrazolo[4,3-c]pyridine-3-carboxamide]
pEC50 (STAT6): 9.00
pIC50 [1]: 8.00

CC(C)n1nc(C(=O)NCc2ccc(NC(=O)N3CCC(C)(O)CC3)cc2)c2c1[C@@H](C)CN(c1ccc(C(=O)N(C)C)cn1)C2 [Example 592, (S)-5-(5-(dimethylcarbamoyl)pyridin-2-yl)-N-(4-(4-hydroxy-4-methylpiperidine-1-carboxamido)benzyl)-1-isopropyl-7-methyl-4,5,6,7-tetrahydro-1H-pyrazolo[4,3-c]pyridine-3-carboxamide]
pEC50 (STAT6): 9.00
pIC50 [1]: 8.05

CC(C)n1nc(C(=O)NCc2ccc(NC(=O)N3CCC(C)(C#N)CC3)cc2)c2c1[C@@H](C)CN(c1ccc(C(=O)N(C)C)cn1)C2 [Example 593, (S)-N-(4-(4-cyano-4-methylpiperidine-1-carboxamido)benzyl)-5-(5-(dimethylcarbamoyl)pyridin-2-yl)-1-isopropyl-7-methyl-4,5,6,7-tetrahydro-1H-pyrazolo[4,3-c]pyridine-3-carboxamide]
pEC50 (STAT6): 9.00
pIC50 [1]: 7.92

CC(C)n1nc(C(=O)NCc2ccc(NC(=O)N3CCN(C)CC3)cc2)c2c1[C@@H](C)CN(c1ccc(-n3ccccc3=O)cc1)C2 [Example 594, (S)-1-isopropyl-7-methyl-N-(4-(4-methylpiperazine-1-carboxamido)benzyl)-5-(4-(2-oxopyridin-1(2H)-yl)phenyl)-4,5,6,7-tetrahydro-1H-pyrazolo[4,3-c]pyridine-3-carboxamide]
pEC50 (STAT6): 8.70
pIC50 [1]: 7.60

CC(C)n1nc(C(=O)NCc2ccc(NC(=O)N3CC4(CNC4)C3)c(F)c2)c2c1[C@@H](C)CN(c1ccc(C(=O)N(C)C)cc1)C2 [Example 595, (S)-5-(4-(dimethylcarbamoyl)phenyl)-N-(3-fluoro-4-(2,6-diazaspiro[3.3]heptane-2-carboxamido)benzyl)-1-isopropyl-7-methyl-4,5,6,7-tetrahydro-1H-pyrazolo[4,3-c]pyridine-3-carboxamide]
pEC50 (STAT6): 7.19
pIC50 [1]: 7.08

CC(C)n1nc(C(=O)NCc2ccc(NC(=O)N3CCNCC3)c(Cl)c2)c2c1[C@@H](C)CN(c1ccc(C(=O)N(C)C)cc1)C2 [Example 596, (S)-N-(3-chloro-4-(piperazine-1-carboxamido)benzyl)-5-(4-(dimethylcarbamoyl)phenyl)-1-isopropyl-7-methyl-4,5,6,7-tetrahydro-1H-pyrazolo[4,3-c]pyridine-3-carboxamide]
pEC50 (STAT6): 8.52
pIC50 [1]: 7.35

CNC1CN(C(=O)Nc2ccc(CNC(=O)c3nn(C(C)C)c4c3CN(c3ccc(C(=O)N(C)C)cc3)C[C@@H]4C)cc2F)C1 [Example 597, (S)-5-(4-(dimethylcarbamoyl)phenyl)-N-(3-fluoro-4-(3-(methylamino)azetidine-1-carboxamido)benzyl)-1-isopropyl-7-methyl-4,5,6,7-tetrahydro-1H-pyrazolo[4,3-c]pyridine-3-carboxamide]
pEC50 (STAT6): 8.40
pIC50 [1]: 7.55

CC(C)n1nc(C(=O)NCc2ccc(NC(=O)N(C)CC(F)F)cc2)c2c1[C@@H](C)CN(c1ccc(C(=O)N(C)C)cn1)C2 [Example 598, (S)-N-(4-(3-(2,2-difluoroethyl)-3-methylureido)benzyl)-5-(5-(dimethylcarbamoyl)pyridin-2-yl)-1-isopropyl-7-methyl-4,5,6,7-tetrahydro-1H-pyrazolo[4,3-c]pyridine-3-carboxamide]
pEC50 (STAT6): 9.00
pIC50 [1]: 7.89
